Source: US20020137929A1, “1 - (3-heterocyclylphenyl) isothiourea, -isourea, -guanidine and -amidine herbicidal agents” (Intellectual Property Department, BASF Aktiengesellschaft, priority 1998, published 2002)

Columns and labels:
[1] = test system: IPOSS (Morningglory Spp.); experiment: Postemergence herbicidal evaluation; format: in vivo, Ipomoea Spp.
Outline: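 Herbicidal effect was judged by eye on a 0–9 scale covering stand, vigor, deformity, size and chlorosis, compared with controls, four to five weeks after seedlings about two weeks old were sprayed (40 psi, ~0.0156–0.500 kg/ha).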

GLXMA (Soybean) [2] = experiment: Postemergence herbicidal evaluation; format: in vivo, Glycine max
Method: In the tests, seedling plants are grown in jiffy flats for about two weeks. The test compounds are dispersed in 50/50 acetone/water mixtures containing 0.5% TWEEN®20, a polyoxyethylene sorbitan monolaurate surfactant of Atlas Chemical Industries, in sufficient quantities to provide the equivalent of about 0.0156 kg to 0.500 kg per hectare of active compound when applied to the plants through a spray nozzle operating at 40 psi for a predetermined time. After spraying, the plants are placed on greenhouse benches and are cared for in accordance with conventional greenhouse procedures. From four to five weeks after treatment, the seedling plants are examined and rated according to the rating system set forth below. Where more than one test is involved for a given compound, the data are averaged.
Plant species employed in these evaluations are reported by header abbreviation, common name and scientific name.
Results of herbicide evaluation are expressed on a rating scale (0-9). The scale is based upon a visual observation of plant stand, vigor, malformation, size, chlorosis and overall plant appearance as compared with a control.

[3] = test system: IPOSS (Morningglory Spp.); experiment: Preemergence herbicidal evaluation; format: in vivo, Ipomoea Spp.; settings: rated 4-5 weeks after treatment
Outline: (§1)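 Rating at 4–5 wk post-spray on a 0–9 visual scale vs control. Application: aqueous acetone, ~0.0156–0.500 kg/ha, to soil surface after seeding, preemergence.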

GLXMA (Soybean) [4] = experiment: Preemergence herbicidal evaluation; format: in vivo, Glycine max; settings: rated 4-5 weeks after treatment
Outline: as §1

[5] = test system: ECHORC (Watergrass (Calif.)); experiment: Postemergence weed control under flooded paddy conditions; format: in vivo, Echinochloa oryzoides; settings: postemergence weeds
Outline: (§2)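 Containers holding 3–5 cm weeds and rice at 1.5–2.5 leaves are flooded to 1.5–3 cm above soil. Compound in 50/50 v/v aqueous/acetone is then added directly to the water, about 0.0313–0.500 kg/ha. Plants are kept in the greenhouse and rated 0–9 visually at 3–4 weeks.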

CYPIR (Rice Flatsedge) = experiment: as above; format: in vivo, Cyperus iria; settings: postemergence weeds
Outline: as §2

CYPSE (Flatsedge) = experiment: as above; format: in vivo, Cyperus serotinus; settings: postemergence weeds
Outline: as §2

[6] = rate 0.0313 kg/ha, 3-4 weeks after treatment
[7] = rate 0.0625 kg/ha, 3-4 weeks after treatment
[8] = rate 0.1250 kg/ha, 3-4 weeks after treatment
[9] = rate 0.2500 kg/ha, 3-4 weeks after treatment
[10] = rate 0.5000 kg/ha, 3-4 weeks after treatment
[11] = Rate 0.0313 kg/ha, rated 3 to 4 weeks after treatment
[12] = Rate 0.0625 kg/ha, rated 3 to 4 weeks after treatment
[13] = Rate 0.1250 kg/ha, rated 3 to 4 weeks after treatment
[14] = Rate 0.2500 kg/ha, rated 3 to 4 weeks after treatment

Structure (SMILES): CC1SC(=Nc2cc(N3C(=O)C4=C(CCCC4)C3=O)c(F)cc2Cl)N(C)C1=O (stereo not shown) [Compound 4]
- IPOSS herbicidal rating ([1]; rate 0.0313 kg/ha): 0.0
- IPOSS herbicidal rating ([1]; rate 0.0625 kg/ha): 0.0
- IPOSS herbicidal rating ([1]; rate 0.1250 kg/ha): 0.0
- IPOSS herbicidal rating ([1]; rate 0.2500 kg/ha): 1.0
- IPOSS herbicidal rating ([1]; rate 0.5000 kg/ha): 4.0
- GLXMA herbicidal rating (GLXMA (Soybean) [2]; rate 0.0313 kg/ha): 2.0
- GLXMA herbicidal rating (GLXMA (Soybean) [2]; rate 0.0625 kg/ha): 2.5
- GLXMA herbicidal rating (GLXMA (Soybean) [2]; rate 0.1250 kg/ha): 4.5
- GLXMA herbicidal rating (GLXMA (Soybean) [2]; rate 0.2500 kg/ha): 4.5
- GLXMA herbicidal rating (GLXMA (Soybean) [2]; rate 0.5000 kg/ha): 4.5
- IPOSS preemergence herbicidal rating ([3]; rate 0.1250 kg/ha): 0.0
- IPOSS preemergence herbicidal rating ([3]; rate 0.2500 kg/ha): 2.0
- IPOSS preemergence herbicidal rating ([3]; rate 0.5000 kg/ha): 9.0
- GLXMA preemergence herbicidal rating (GLXMA (Soybean) [4]; rate 0.1250 kg/ha): 0.0
- GLXMA preemergence herbicidal rating (GLXMA (Soybean) [4]; rate 0.2500 kg/ha): 2.0
- GLXMA preemergence herbicidal rating (GLXMA (Soybean) [4]; rate 0.5000 kg/ha): 4.0
- Herbicidal rating ECHORC [5, 6]: 1.0
- Herbicidal rating ECHORC [5, 7]: 2.0
- Herbicidal rating ECHORC [5, 8]: 3.5
- Herbicidal rating ECHORC [5, 9]: 4.0
- Herbicidal rating ECHORC [5, 10]: 5.0
- Herbicidal rating CYPIR (CYPIR (Rice Flatsedge); [6]): 0.0
- Herbicidal rating CYPIR (CYPIR (Rice Flatsedge); [7]): 2.0
- Herbicidal rating CYPIR (CYPIR (Rice Flatsedge); [8]): 4.5
- Herbicidal rating CYPIR (CYPIR (Rice Flatsedge); [9]): 6.5
- Herbicidal rating CYPIR (CYPIR (Rice Flatsedge); [10]): 9.0
- Herbicidal rating CYPSE (CYPSE (Flatsedge); [6]): 0.0
- Herbicidal rating CYPSE (CYPSE (Flatsedge); [7]): 0.0
- Herbicidal rating CYPSE (CYPSE (Flatsedge); [8]): 0.0
- Herbicidal rating CYPSE (CYPSE (Flatsedge); [9]): 0.0
- Herbicidal rating CYPSE (CYPSE (Flatsedge); [10]): 0.0

Structure (SMILES): CCOC(=O)CN1C(=O)C(Cc2ccccc2OC(C)C(=O)O)S/C1=N/c1cc(-n2c(=O)cc(C(F)(F)F)n(C)c2=O)c(F)cc1Cl (stereo not shown) [Compound 114, 5-[o-(1-Carboxyethoxy)benzyl]-2-{{2-chloro-5-[3,6-dihydro-3-methyl-2,6-dioxo-4-(trifluoromethyl)-1(2H)-pyrimidinyl]-4-fluorophenyl}imino}-4-oxo-3-thiazolidineacetic acid, 3-ethyl ester]
- Herbicidal rating ECHORC [5, 11]: 0.0
- Herbicidal rating ECHORC [5, 12]: 0.0
- Herbicidal rating ECHORC [5, 13]: 0.0
- Herbicidal rating ECHORC [5, 14]: 0.0
- Herbicidal rating CYPIR (CYPIR (Rice Flatsedge); [11]): 0.0
- Herbicidal rating CYPIR (CYPIR (Rice Flatsedge); [12]): 0.0
- Herbicidal rating CYPIR (CYPIR (Rice Flatsedge); [13]): 4.0
- Herbicidal rating CYPIR (CYPIR (Rice Flatsedge); [14]): 7.0
- Herbicidal rating CYPSE (CYPSE (Flatsedge); [11]): 0.0
- Herbicidal rating CYPSE (CYPSE (Flatsedge); [12]): 0.0
- Herbicidal rating CYPSE (CYPSE (Flatsedge); [13]): 0.0
- Herbicidal rating CYPSE (CYPSE (Flatsedge); [14]): 0.0
